For experiment [1], the system named is Trichomonas vaginalis. Kind of experiment: Antimicrobial activity against Trichomonas vaginalis. It counts as functional, organism-based.
For experiment [2], the system named is Giardia intestinalis. Kind of experiment: Antimicrobial activity against Giardia intestinalis. To be noted: for IC50: Giardia duodenalis. It counts as functional, organism-based, Giardia duodenalis.
Setting [3] is: Trichomonas vaginalis, read-out: pIC50 (converted).
Where [4] appears, read: Trichomonas vaginalis, read-out: IC50.

As to `FC(F)(F)c1nc2c(Br)cc(Br)cc2[nH]1`, the pIC50 worked out at 6.72 in experiment [1] and 6.6 in experiment [2]. Also, the IC50 in experiment [1] (setting [3]) was 191 nM; in experiment [2] (read-out: pIC50 (converted)) it was 251 nM.
With `Clc1cc(Cl)c2nc(SCCN3CCOCC3)[nH]c2c1`, the pIC50 in experiment [1] was 7.29; in experiment [2], 7.41. The figures for the IC50 in experiment [1] (setting [3]) and in experiment [2] (read-out: pIC50 (converted)) were 51.3 nM and 38.9 nM, respectively.
On to `Brc1cc(Br)c2nc(SCCN3CCCCC3)[nH]c2c1`, for which the figures for the pIC50 in experiment [1] and in experiment [2] were 7.69 and 6.9, respectively. Also, the figures for the IC50 in experiment [1] (setting [3]) and in experiment [2] (read-out: pIC50 (converted)) were 20.4 nM and 126 nM, respectively.
With `FC(F)(F)c1nc2cc(Br)ccc2[nH]1`, the pIC50 in experiment [1] is recorded as 5.8; in experiment [2] it was 6.19. The IC50 in experiment [1] (setting [3]) was 1580 nM; in experiment [2] (read-out: pIC50 (converted)), 646 nM.
With `O=[N+]([O-])c1ccc(CCSc2nc3c(Br)cc(Br)cc3[nH]2)cc1`, the figures for the negative logarithm of the IC50 (pIC50) in experiment [1] and in experiment [2] were 8.48 and 7.43, respectively. Further, the IC50 in experiment [1] (setting [4]) is 3 nM; in experiment [1] (setting [3]), 3.31 nM; in experiment [2] (read-out: pIC50 (converted)), 37.2 nM.
Turning to `CN(C)CCCSc1nc2c(Cl)cc(Cl)cc2[nH]1`, the negative logarithm of the IC50 (pIC50) is given as 7.07 in experiment [1] and 7.14 in experiment [2]. Besides, the IC50 in experiment [1] (setting [4]) was 85 nM; in experiment [1] (setting [3]), 85.1 nM; in experiment [2] (read-out: IC50), 72 nM; in experiment [2] (read-out: pIC50 (converted)) it was 72.4 nM.
With `CCN(CC)CCSc1nc2c(Cl)cc(Cl)cc2[nH]1`, the values for the pIC50 in experiment [1] and in experiment [2] were 7.39 and 7.72, respectively. Also, the IC50 in experiment [1] (setting [3]) was 40.7 nM; in experiment [2] (read-out: pIC50 (converted)), 19.1 nM.
Consider `CN(C)CCSc1nc2c(Br)cc(Br)cc2[nH]1`, for which the pIC50 in experiment [1] is 6.51; in experiment [2], 7.54. Besides, the IC50 in experiment [1] (setting [3]) was 309 nM; in experiment [2] (read-out: pIC50 (converted)), 28.8 nM.
Regarding `Clc1cc(Cl)c2nc(SCCN3CCCCC3)[nH]c2c1`, the results for the pIC50 in experiment [1] and in experiment [2] were 7.14 and 7.26, respectively. The IC50 in experiment [1] (setting [3]) was 72.4 nM; in experiment [2] (read-out: pIC50 (converted)) it was 55 nM.
Turning to `CCCSc1ccc2[nH]c(C(F)(F)F)nc2c1`, the pIC50 in experiment [1] turned out to be 6.46; in experiment [2] it was 5.82. In addition, the figures for the IC50 in experiment [1] (setting [3]) and in experiment [2] (read-out: pIC50 (converted)) were 347 nM and 1510 nM, respectively.
Take `O=C(c1ccccc1)c1ccc2[nH]c(C(F)(F)F)nc2c1`: the negative logarithm of the IC50 (pIC50) is recorded as 4.55 in experiment [1] and 5.64 in experiment [2]. Further, the IC50 in experiment [1] (setting [4]) is 28400 nM; in experiment [1] (setting [3]), 28200 nM; in experiment [2] (read-out: IC50), 2310 nM; in experiment [2] (read-out: pIC50 (converted)), 2290 nM.
`CN(C)CCSc1nc2c(Cl)cc(Cl)cc2[nH]1` displayed a negative-log IC50 (pIC50) in experiment [2] of 7.68. Further, the IC50 in experiment [2] (read-out: pIC50 (converted)) is 20.9 nM.
As to `OCCSc1nc2c(Br)cc(Br)cc2[nH]1`, the figures for the pIC50 in experiment [1] and in experiment [2] were 6.83 and 6.98, respectively. For the same compound, the IC50 in experiment [1] (setting [3]) was 148 nM; in experiment [2] (read-out: pIC50 (converted)), 105 nM.
As to `CCN(CC)CCSc1nc2c(Br)cc(Br)cc2[nH]1`, the pIC50 was 7.53 in experiment [1] and 7.46 in experiment [2]. The IC50 was 29 nM in experiment [1] (setting [4]), 29.5 nM in experiment [1] (setting [3]) and 34.7 nM in experiment [2] (read-out: pIC50 (converted)).
On to `Brc1cc(Br)c2nc(SCCN3CCOCC3)[nH]c2c1`, for which the pIC50 in experiment [1] and in experiment [2] was 7.23 throughout. The IC50 in experiment [1] (setting [3]) and in experiment [2] (read-out: pIC50 (converted)) was 58.9 nM in each case.
Take `OCCSc1nc2c(Cl)cc(Cl)cc2[nH]1`: the figures for the negative-log IC50 (pIC50) in experiment [1] and in experiment [2] were 6.16 and 7.42, respectively. Further, the IC50 in experiment [1] (setting [3]) was 692 nM; in experiment [2] (read-out: pIC50 (converted)), 38 nM.
As for `CN(C)CCCSc1nc2c(Br)cc(Br)cc2[nH]1`, the pIC50 in experiment [1] is listed as 7.99; in experiment [2], 7.69. Also, the IC50 in experiment [1] (setting [4]) was 11 nM; in experiment [1] (setting [3]), 10.2 nM; in experiment [2] (read-out: IC50), 20 nM; in experiment [2] (read-out: pIC50 (converted)), 20.4 nM.
Regarding `O=[N+]([O-])c1ccc(CCSc2nc3c(Cl)cc(Cl)cc3[nH]2)cc1`, the pIC50 in experiment [1] is recorded as 7.96; in experiment [2], 7.09. The IC50 was 10 nM in experiment [1] (setting [4]), 11 nM in experiment [1] (setting [3]) and 81.3 nM in experiment [2] (read-out: pIC50 (converted)).
Turning to `FC(F)(F)c1nc2c(Br)c(Br)c(Br)cc2[nH]1`, the values for the pIC50 in experiment [1] and in experiment [2] were 6.57 and 6.85, respectively. Besides, the IC50 in experiment [1] (setting [4]) is 270 nM; in experiment [1] (setting [3]), 269 nM; in experiment [1] (read-out: IC50), 270 nM; in experiment [2] (read-out: pIC50 (converted)), 141 nM.

Broadly, the pIC50 is the negative decadic logarithm of the IC50, by convention in mol/L. High values mean a small IC50, low ones a large IC50.

For the origin of these results see ChEMBL document CHEMBL3217580, “Structureactivity relationships of benzimidazole derivatives as antiparasitic agents: Dual activity-difference (DAD) maps” (Medchemcomm, 2011).
